The record followed here is US20080206183A1, “Method of Preparing Grafted Polylysine Dendrimers” (Central national De La Recherche Scientifique, priority 2005, published 2008).

Data set [1] is described as follows: Hydrodynamic range by Taylor diffusion analysis (TDA). Type of data set: physicochemical. As to the method:
(§1) In order to find the characteristic dimension of the GLDs in solution, the hydrodynamic ranges were determined from the molecular diffusion coefficients by using the Stoke-Einstein ratio:
(§2) where η is the viscosity of the medium, k the Boltzmann constant and T the temperature in K. In order to determine Dm, two experimental methods were used: quasi-elastic or static light diffusion (SLD) (coupled or not coupled with SEC), and the Taylor diffusion method (TDA). This latter method makes it possible to measure the diffusion coefficient of a species from the widening of a solute band under the influence of a hydrodynamic flow the speed profile of which is known to be dispersive (parabolic Poiseuille profile).
(§3) The TDA measurements were carried out using a capillary electrophoresis appliance, using silica capillaries of 50 μm i.d. (60 cm×50 cm up to the detector) the internal surface of which was previously modified by grafting a polycation (poly(diallyl-dimethyl-ammonium)) in order to limit the adsorption of the GLD solutes on the surface of the capillary. Dispersion of the solute band under the influence of the Poiseuille flow was measured using a UV spectrophotometer. The diffusion coefficient was then determined according to the method originally described by Taylor, then repeated by Bello et al.. In parallel to the TDA method, measurements were carried out by SLD, using a zetasizer (Malvern) device. Finally, it was also possible to obtain Rh measurements from the 3D-SEC (Viscotek). All of the numerical data for Rh is shown together in Table 3.

Data set [2] in a line: Hydrodynamic range by quasi-elastic or static light diffusion (SLD). Type of data set: physicochemical. As to the method: as §1, §2, §3
The mark [3] stands for this setting: Buffer 1 (H2PO4−Na+ 50 g/L, pH 4.5).
[4] abbreviates: Buffer 2 (Buffer 1 + 3% acetonitrile).
The mark [5] stands for this setting: Buffer 3 (physiological buffer, pH 7.0).

linear poly-L-Lysine [P1]: the “Rh (nm) hydrodynamic range” value in data set [1] (setting [3]) is given as 1.1 nm; in data set [1] (setting [4]) it was 0.95 nm; in data set [1] (setting [5]), 0.74 nm; in data set [2] (setting [3]), 1.18 nm; in data set [2] (setting [4]), 1.1 nm; in data set [2] (setting [5]), 1.01 nm.
